Measured values as given in PubChem BioAssay AID1963985 (Molecular Pharmacology Branch, DTP, NCI, 2024).

Test system: 252836-082-R-J2-PDC tumor spheroids, viability
Assay: Anticancer human tumor 252836-082-R-J2-PDC patient-derived head and neck squamous cell carcinoma cell line growth inhibition [PI3K]
Settings: spheroids with HUVEC and MSC; for IC50: curve of first compound; for viability, T/C: stronger effect = lower value
Summary of the method: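 Combination activity was assessed by viability in multicellular tumor spheroids carrying HUVEC and MSC components. Agents were tested with PI3K inhibitors from a Cmax-based top dose (or 10 microM) downward in half-log increments.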
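Note: spheroids exposed to agents for seven days before readout.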
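Throughout, for viability, T/C: percent of vehicle DMSO control viability so 100% = untreated growth.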

IC50 (second compound 0.00316 µM): 5.66 µM
IC50 (second compound 0.01 µM): 5.49 µM
IC50 (second compound 0.0316 µM): 5 µM
IC50 (second compound 0.1 µM): 3.92 µM
IC50 (second compound 0.316 µM): 3.46 µM
IC50 (second compound 1 µM): < 0.0316 µM
SMILES: CC1(C)CCC(CN2CCN(c3ccc(C(=O)NS(=O)(=O)c4ccc(NCC5CCOCC5)c([N+](=O)[O-])c4)c(Oc4cnc5[nH]ccc5c4)c3)CC2)=C(c2ccc(Cl)cc2)C1 + CC(Nc1ccc2c(c1)OCCn1cc(N3C(=O)OCC3C(F)F)nc1-2)C(N)=O
viability, T/C (second compound 0.00316 µM, first compound 0.0316 µM): 95.4%
viability, T/C (second compound 0.00316 µM, first compound 0.1 µM): 81.6%
viability, T/C (second compound 0.00316 µM, first compound 0.316 µM): 93.3%
viability, T/C (second compound 0.00316 µM, first compound 1 µM): 101%
viability, T/C (second compound 0.00316 µM, first compound 3.16 µM): 99%
viability, T/C (second compound 0.00316 µM, first compound 10 µM): 6.79%
viability, T/C (second compound 0.01 µM, first compound 0.0316 µM): 98.6%
viability, T/C (second compound 0.01 µM, first compound 0.1 µM): 87%
viability, T/C (second compound 0.01 µM, first compound 0.316 µM): 90.1%
viability, T/C (second compound 0.01 µM, first compound 1 µM): 90.9%
viability, T/C (second compound 0.01 µM, first compound 3.16 µM): 84.7%
viability, T/C (second compound 0.01 µM, first compound 10 µM): 12.2%
viability, T/C (second compound 0.0316 µM, first compound 0.0316 µM): 77.6%
viability, T/C (second compound 0.0316 µM, first compound 0.1 µM): 83.8%
viability, T/C (second compound 0.0316 µM, first compound 0.316 µM): 76.5%
viability, T/C (second compound 0.0316 µM, first compound 1 µM): 68.9%
viability, T/C (second compound 0.0316 µM, first compound 3.16 µM): 90.1%
viability, T/C (second compound 0.0316 µM, first compound 10 µM): 5.56%
viability, T/C (second compound 0.1 µM, first compound 0.0316 µM): 78.7%
viability, T/C (second compound 0.1 µM, first compound 0.1 µM): 64.9%
viability, T/C (second compound 0.1 µM, first compound 0.316 µM): 66.1%
viability, T/C (second compound 0.1 µM, first compound 1 µM): 73%
viability, T/C (second compound 0.1 µM, first compound 3.16 µM): 59.8%
viability, T/C (second compound 0.1 µM, first compound 10 µM): 4.08%
viability, T/C (second compound 0.316 µM, first compound 0.0316 µM): 70.8%
viability, T/C (second compound 0.316 µM, first compound 0.1 µM): 55.3%
viability, T/C (second compound 0.316 µM, first compound 0.316 µM): 54.3%
viability, T/C (second compound 0.316 µM, first compound 1 µM): 56.4%
viability, T/C (second compound 0.316 µM, first compound 3.16 µM): 54.3%
viability, T/C (second compound 0.316 µM, first compound 10 µM): 6.25%
viability, T/C (second compound 1 µM, first compound 0.0316 µM): 47.5%
viability, T/C (second compound 1 µM, first compound 0.1 µM): 49.6%
viability, T/C (second compound 1 µM, first compound 0.316 µM): 49.7%
viability, T/C (second compound 1 µM, first compound 1 µM): 47.9%
viability, T/C (second compound 1 µM, first compound 3.16 µM): 39.7%
viability, T/C (second compound 1 µM, first compound 10 µM): 15.7%
